Values joined by “and” are separate entries in the source; they are usually repeats but may differ in a detail not shown here. Identical values can stand only once. After the bases stand the sugars from the 5' end (letter, count) and the backbone: PS all phosphorothioate, else s phosphorothioate and o phosphodiester by linkage. Methylation of C is not given here. e = 2'-O-(2-methoxyethyl) (MOE); k = constrained ethyl (cEt); d = 2'-deoxy (DNA)

The target of this data set is SOD1. The settings on record: ASO.

Consider “AATAGACACATCGGCCACAC (sugars e5 d10 e5, PS)”, for which the target mRNA inhibition (HepG2, 5 µM) was 30% and 25%.

With “AATAGCCTCATAATAAG (sugars e2 k2 d8 k2 e3, PS)”, the target mRNA inhibition (HepG2, 5 µM) was 20%.

Take “AATCTTCCAAGTGATCATAA (sugars e5 d10 e5, PS)”: the target mRNA inhibition (HepG2, 5 µM) turned out to be 4%.

For the setting “HepG2, 3 µM”, “AATGTTTATTGGGCGAT (sugars e3 k2 d7 k2 e3, PS)” returned a target mRNA inhibition of 30%.

As to “AATTACACTTTTAAGATTAC (sugars e5 d10 e5, PS)”, where the note is “HepG2, 5 µM”, the target mRNA inhibition stood at 1%.

In the case of “ACACAATTACACTTTTAAGA (sugars e5 d10 e5, PS)”, where the note is “HepG2, 5 µM”, the target mRNA inhibition is 0%.

In the case of “ACAGCTAGCAGGATAAC (sugars e2 k2 d8 k2 e3, PS)”, the target mRNA inhibition was 11% (HepG2, 0.1875 µM); 64% (HepG2, 0.75 µM); 87% (HepG2, 3 µM); 79% (HepG2, 4 µM); 95% (HepG2, 12 µM).

As for “ACAGCTAGCAGGATAAC (sugars e2 k2 d9 k2 e2, PS)”, the target mRNA inhibition turned out to be 29% (HepG2, 0.1875 µM); 71% (HepG2, 0.75 µM); 89% (HepG2, 3 µM); 83% (HepG2, 4 µM); 97% (HepG2, 12 µM).

In the case of “ACAGGTACTTTAAAGCA (sugars e2 k2 d9 k2 e2, PS)”, where the note is “HepG2, 5 µM”, the target mRNA inhibition stood at 20%.

With “ACAGTGTTTAATGTTTA (sugars e2 k2 d8 k2 e3, PS)”, the target mRNA inhibition is, setting by setting: (HepG2, 0.1875 µM) 39%; (HepG2, 0.75 µM) 69%; (HepG2, 3 µM) 82%; (HepG2, 4 µM) 78%; (HepG2, 5 µM) 83%; (HepG2, 12 µM) 84% and 86%.

Consider “ACAGTGTTTAATGTTTA (sugars e2 k2 d9 k2 e2, PS)”, for which the target mRNA inhibition (HepG2, 0.1875 µM) came out at 40%; the target mRNA inhibition (HepG2, 0.75 µM) worked out at 67%; the target mRNA inhibition (HepG2, 3 µM) turned out to be 86%; the target mRNA inhibition (HepG2, 4 µM) was found to be 79%; the target mRNA inhibition (HepG2, 5 µM) amounted to 84%; the target mRNA inhibition (HepG2, 12 µM) is 83% and 88%.

As for “ACATGGAATCCATGCAG (sugars e3 k2 d7 k2 e3, PS)”, the target mRNA inhibition (HepG2, 3 µM) is 0%.

Regarding “ACCATCTTTGTCAGCAGTCA (sugars e5 d10 e5, PS)”, where the note is “HepG2, 5 µM”, the target mRNA inhibition is 41% and 30%.

In turn, “ACCCATCTGTGATTTAA (sugars e2 k2 d9 k2 e2, PS)” came in with a target mRNA inhibition (HepG2, 5 µM) of 44%.

Regarding “ACCTCCGCGCCTCGCCCACT (sugars e5 d10 e5, PS)”, the target mRNA inhibition is, setting by setting: (HepG2, 4 µM) 63% and 77%; (HepG2, 12 µM) 92%.

For the sequence “ACGCTGCAGGAGACTAC (sugars e3 k2 d7 k2 e3, PS)”, the target mRNA inhibition (HepG2, 3 µM) was 25%.

As for “ACTACATCCAAGGGAAT (sugars e2 k2 d8 k2 e3, PS)”, the target mRNA inhibition (HepG2, 4 µM) is 42%.

“ACTGCAACGGAAACCCCAGA (sugars e5 d10 e5, PS)” showed a target mRNA inhibition (HepG2, 4 µM) of 43%.

In the case of “AGACATTTTAACTGAGT (sugars e2 k2 d9 k2 e2, PS)”, the target mRNA inhibition (HepG2, 5 µM) is 53%.

“AGACCTCCGCGCCTCGCCCA (sugars e5 d10 e5, PS)”: the target mRNA inhibition (HepG2, 12 µM) was 84%.

Where the note is “HepG2, 3 µM”, “AGATTACAGTGTTTAAT (sugars e3 k2 d7 k2 e3, PS)” returned a target mRNA inhibition of 45%.

Take “AGCAACTCTGAAAAAGTCAC (sugars e5 d10 e5, PS)”: the target mRNA inhibition (HepG2, 5 µM) amounted to 14%.

Sequence “AGCAGGATAACAGATGA (sugars e3 k2 d7 k2 e3, PS)” yielded a target mRNA inhibition (HepG2, 3 µM) of 45%.

Consider “AGCTAGCAGGATAACAG (sugars e2 k2 d8 k2 e3, PS)”, for which the target mRNA inhibition (HepG2, 4 µM) was 57%.

“AGCTAGCAGGATAACAG (sugars e3 k2 d7 k2 e3, PS)”: for the setting “HepG2, 3 µM”, the target mRNA inhibition was found to be 15%.

With “AGGATACATTTCTACAG (sugars e2 k2 d8 k2 e3, PS)”, the target mRNA inhibition (HepG2, 4 µM) was determined as 60%.

Turning to “AGGATACATTTCTACAGC (sugars e5 d8 e5, linkages s1 o3 s9 o2 s2)”, the target mRNA inhibition is 42% (A431, 0.12 µM); 23% (A431, 0.6 µM); 26% (A431, 3 µM); 45% (A431, 15 µM); 9% (HepG2, 0.222 µM); 43% (HepG2, 0.667 µM). Further, the target mRNA inhibition was 65% (HepG2, 2 µM) and 86% (HepG2, 6 µM).

As for “AGGATACATTTCTACAGCTA (sugars e5 d10 e5, PS)”, the target mRNA inhibition was 29% (HepG2, 0.1875 µM); 47% (HepG2, 0.75 µM); 82% (HepG2, 3 µM); 56% (HepG2, 4 µM); 79% (HepG2, 5 µM); 80% and 96% (HepG2, 12 µM).

For the setting “HepG2, 3 µM”, “AGGATTAAAGTGAGGAC (sugars e3 k2 d7 k2 e3, PS)” displayed a target mRNA inhibition of 23%.

On to “AGGTACTTTAAAGCAACTCT (sugars e5 d10 e5, PS)”, for which the target mRNA inhibition (HepG2, 5 µM) came out at 36%.

Turning to “AGGTCATTGAAACAGAC (sugars e3 k2 d7 k2 e3, PS)”, the target mRNA inhibition (HepG2, 3 µM) stood at 21%.

Regarding “AGTGAGGACCTGCACTG (sugars e3 k2 d7 k2 e3, PS)”, the target mRNA inhibition (HepG2, 3 µM) is 21%.

Turning to “AGTGTTTAATGTTTATC (sugars ekekddddddddeeeee, linkages s1 o2 s9 o2 s2)”, the target mRNA inhibition was 24% (A431, 0.062 µM); 37% (A431, 0.185 µM); 57% (A431, 0.556 µM); 77% (A431, 1.667 µM); 81% (A431, 5 µM); 86% (A431, 15 µM). The target mRNA inhibition reads like this: (SH-SY5Y, 0.062 µM) 3%; (SH-SY5Y, 0.185 µM) 6%; (SH-SY5Y, 0.556 µM) 48%; (SH-SY5Y, 1.667 µM) 69%; (SH-SY5Y, 5 µM) 77%; (SH-SY5Y, 15 µM) 87%.

As to “AGTGTTTAATGTTTATC (sugars ekekddddddddkekee, linkages s1 o2 s9 o2 s2)”, the target mRNA inhibition by setting is: (A431, 0.062 µM) 52%; (A431, 0.185 µM) 68%; (A431, 0.556 µM) 79%; (A431, 1.667 µM) 88%; (A431, 5 µM) 89%; (A431, 15 µM) 91%. The target mRNA inhibition turned out to be 38% (SH-SY5Y, 0.062 µM); 49% (SH-SY5Y, 0.185 µM); 61% (SH-SY5Y, 0.556 µM); 83% (SH-SY5Y, 1.667 µM); 81% (SH-SY5Y, 5 µM); 84% (SH-SY5Y, 15 µM).

“AGTGTTTAATGTTTATCAGG (sugars e5 d10 e5, linkages s1 o3 s11 o3 s1)”: the target mRNA inhibition by setting is: (A431, 0.12 µM) 16%; (A431, 0.6 µM) 49%; (A431, 3 µM) 60%; (A431, 15 µM) 75%; (HepG2, 0.222 µM) 28%; (HepG2, 0.667 µM) 55%. Further, the target mRNA inhibition reads like this: (HepG2, 2 µM) 89%; (HepG2, 6 µM) 80%.

With “ATAATAAGTGCCATACA (sugars e2 k2 d9 k2 e2, PS)”, the target mRNA inhibition (HepG2, 5 µM) was 27%.

Under “HepG2, 5 µM”, “ATACAGGTCATTGAAAC (sugars e2 k2 d8 k2 e3, PS)” registered a target mRNA inhibition of 33%.

Turning to “ATCTTCAATAGACACATCGG (sugars e5 d10 e5, PS)”, the target mRNA inhibition (HepG2, 5 µM) was 16% and 0%.

Turning to “ATGCAATGGTCTCCTGAGAG (sugars e5 d10 e5, PS)”, the target mRNA inhibition (HepG2, 5 µM) turned out to be 0%.

As to “ATGCTTCCCCACACCTT (sugars e3 k2 d7 k2 e3, PS)”, the target mRNA inhibition (HepG2, 3 µM) came out at 41%.

As to “ATGTTTATCAGGATACA (sugars e2 k2 d8 k2 e3, PS)”, the target mRNA inhibition runs as follows: (HepG2, 0.1875 µM) 40%; (HepG2, 0.75 µM) 75%; (HepG2, 3 µM) 92%; (HepG2, 4 µM) 85% and 86%; (HepG2, 12 µM) 95% and 98%.

“ATGTTTATCAGGATACA (sugars e2 k2 d8 k2 e3, linkages s1 o2 s9 o2 s2)” had a target mRNA inhibition (A431, 0.12 µM) of 2%; a target mRNA inhibition (A431, 0.6 µM) of 4%; a target mRNA inhibition (A431, 3 µM) of 12%; a target mRNA inhibition (A431, 15 µM) of 52%; a target mRNA inhibition (HepG2, 0.222 µM) of 53%; a target mRNA inhibition (HepG2, 0.667 µM) of 73%. Also, the target mRNA inhibition reads like this: (HepG2, 2 µM) 89%; (HepG2, 6 µM) 90%.

For the sequence “ATGTTTATCAGGATACA (sugars e2 k2 d9 k2 e2, linkages s1 o3 s9 o1 s2)”, the target mRNA inhibition is, setting by setting: (A431, 0.12 µM) 1%; (A431, 0.6 µM) 4%; (A431, 3 µM) 21%; (A431, 15 µM) 29%; (HepG2, 0.222 µM) 47%; (HepG2, 0.667 µM) 71%. Moreover, the target mRNA inhibition (HepG2, 2 µM) stood at 92% and the target mRNA inhibition (HepG2, 6 µM) was 82%.

On to “ATTACACCACAAGCCAA (sugars e2 k2 d8 k2 e3, PS)”, for which the target mRNA inhibition (HepG2, 4 µM) was 46%.

For the sequence “ATTACACCACAAGCCAA (sugars e2 k2 d9 k2 e2, PS)”, the target mRNA inhibition (HepG2, 4 µM) is 63%.

With “ATTACAGTGTTTAATGT (sugars e3 k2 d7 k2 e3, PS)”, the target mRNA inhibition (HepG2, 3 µM) was determined as 24%.

Sequence “ATTCACAGGCTTGAATG (sugars e2 k2 d8 k2 e3, PS)” yielded a target mRNA inhibition (HepG2, 5 µM) of 19%.

As to “ATTCTGACAAGTTTAAT (sugars e3 k2 d7 k2 e3, PS)”, where the note is “HepG2, 3 µM”, the target mRNA inhibition is 9%.

On to “ATTGAAACAGACATTTT (sugars e3 k2 d7 k2 e3, PS)”, for which the target mRNA inhibition (HepG2, 3 µM) worked out at 22%.

For the setting “HepG2, 4 µM”, “ATTGGGCGATCCCAATT (sugars e2 k2 d8 k2 e3, PS)” had a target mRNA inhibition of 2%.

Turning to “ATTGGGCGATCCCAATT (sugars e2 k2 d9 k2 e2, PS)”, the target mRNA inhibition (HepG2, 4 µM) is 23%.

“ATTGGGCGATCCCAATT (sugars e3 k2 d7 k2 e3, PS)” showed a target mRNA inhibition (HepG2, 3 µM) of 19%.

“ATTTCCACCTTTGCCCA (sugars e3 k2 d7 k2 e3, PS)” yielded a target mRNA inhibition (HepG2, 3 µM) of 63%.
